PMC8037033, “Synthesis and Rational Design of New Appended 1,2,3-Triazole-uracil Ensembles as Promising Anti-Tumor Agents via In Silico VEGFR-2 Transferase Inhibition” (Molecules, 2021)

Key:
[1] = tested on: HeLa tumor cells; assay: MTT cytotoxicity assay, HeLa; format: cell-based, human; conditions: 72 h
Description: (§1) The cell viability was measured by MTT colourimetric assay. The cell lines viz., HeLa (human cervical adenocarcinoma), HUH-7 (human hepatoma cancer cells) and NIH/3T3 (normal murine fibroblast cells) were supplemented with 10% fetal bovine serum and maintained in an environment of 5% CO2 at 37 °C temperature. Cell lines at a density of 2 × 10^3 cells/well were seeded onto 96 well plates for 16 h and maintained in DMEM culture media. Five different concentrations of synthesized ligands and 5-fluorouracil (except for normal cells) i.e., 0.1, 0.5, 1, 5 and 10 μM were treated against each cell line and incubated for 3 days at 37 °C [56]. Then, the solutions were discarded and an MTT reagent with a final concentration of 500 μg/mL was added to each well and plate and incubated for another 4–6 h. 200 μL of DMSO was added to solubilize purple precipitates (formazan product) and absorbance (optical density) was recorded at 570 nm on ELISA reader. IC50 values were calculated using dose-response data by applying the linear regression method. The experiments were done in triplicate for each concentration of ligand.

[2] = tested on: HUH-7 tumor cells; assay: MTT cytotoxicity assay, HUH-7; format: cell-based; conditions: Homo sapiens, 72 h
Description: as §1

[3] = tested on: NIH/3T3 normal cells; assay: MTT cytotoxicity assay, NIH/3T3 normal cells; format: cell-based, murine; conditions: Mus musculus, NIH3T3, 72 h
Description: as §1

melting point [°C] | Compound | IC50 ([1]; Homo sapiens, HeLa) [µM] | IC50 [2] [µM] | IC50 [3] [µM] | IC50 [1] [µM]
120 to 121 | Cn1c(=O)cc(Cl)n(Cc2cn(-c3ccccc3)nn2)c1=O [Compound 5a, 6-Chloro-3-methyl-1-((1-phenyl-1H-1,2,3-triazol-4-yl)methyl)pyrimidine-2,4(1H,3H)-dione] | 11.2 ± 0.1 | > 10 | > 10 | –
97 | Cn1c(=O)cc(Cl)n(Cc2cn(-c3ccc(F)cc3)nn2)c1=O [Compound 5b, 6-Chloro-1-((1-(4-fluorophenyl)-1H-1,2,3-triazol-4-yl)methyl)-3-methylpyrimidine-2,4(1H,3H)-dione] | > 10 | > 10 | > 10 | –
100 | Cn1c(=O)cc(Cl)n(Cc2cn(-c3ccc(Cl)cc3)nn2)c1=O [Compound 5c, 6-Chloro-1-((1-(4-chlorophenyl)-1H-1,2,3-triazol-4-yl)methyl)-3-methylpyrimidine-2,4(1H,3H)-dione] | > 10 | > 10 | > 10 | –
145 to 148 | COc1ccc(-n2cc(Cn3c(Cl)cc(=O)n(C)c3=O)nn2)cc1 [Compound 5e, 6-Chloro-1-((1-(4-methoxyphenyl)-1H-1,2,3-triazol-4-yl)methyl)-3-methylpyrimidine-2,4-(1H,3H)-dione] | > 10 | > 10 | > 10 | –
122 to 125 | COc1cccc2c1OCC(c1noc(Cn3cc(Cn4c(Cl)cc(=O)n(C)c4=O)nn3)n1)=C2 [Compound 5l, 6-Chloro-1-((1-((3-(8-methoxy-2H-chromen-3-yl)-1,2,4-oxadiazol-5-yl)methyl)-1H-1,2,3-triazol-4-yl)methyl)-3-methylpyrimidine-2,4(1H,3H)-dione] | > 10 | > 10 | > 10 | –
115 to 118 | Cn1c(=O)cc(Cl)n(Cc2cn(CCCCn3cc(Cn4c(Cl)cc(=O)n(C)c4=O)nn3)nn2)c1=O [Compound 5q, 1,1’-((Butane-1,4-diylbis(1H-1,2,3-triazole-1,4-diyl))bis(methylene))bis(6-chloro-3-methylpyrimidine-2,4(1H,3H)-dione)] | > 10 | > 10 | > 10 | –
114 to 115 | Cn1c(=O)cc(Cl)n(Cc2cn(CCCCCn3cc(Cn4c(Cl)cc(=O)n(C)c4=O)nn3)nn2)c1=O [Compound 5r, 1,1’-((Pentane-1,5-diylbis(1H-1,2,3-triazole-1,4-diyl))bis(methylene))bis(6-chloro-3-methylpyrimidine-2,4(1H,3H)-dione)] | 9.6 ± 0.9 | > 10 | > 10 | –

The next lines start with the compound.

Compound | melting point [°C] | IC50 ([1]; Homo sapiens, HeLa) [µM] | IC50 [2] [µM] | IC50 [3] [µM] | IC50 [1] [µM]
O=c1[nH]cc(F)c(=O)[nH]1 [Compound 5-FU, 5-fluorouracil, reference compound] | – | 4.6 ± 0.2 | 30 ± 2.5 | – | –
Cn1c(=O)cc(Cl)n(Cc2cn(-c3ccc([N+](=O)[O-])cc3)nn2)c1=O [Compound 5d, 6-Chloro-3-methyl-1-((1-(4-nitrophenyl)-1H-1,2,3-triazol-4-yl)methyl)pyrimidine-2,4(1H,3H)-dione] | 110 to 112 | > 10 | > 10 | > 10 | –
Cn1c(=O)cc(Cl)n(Cc2cn(Cc3ccccc3)nn2)c1=O [Compound 5f, 1-((1-Benzyl-1H-1,2,3-triazol-4-yl)methyl)-6-chloro-3-methylpyrimidine-2,4(1H,3H)-dione] | 115 to 118 | > 10 | 10.8 ± 0.5 | > 10 | –
Cn1c(=O)cc(Cl)n(Cc2cn(Cc3ccc(Br)cc3)nn2)c1=O [Compound 5g, 1-((1-(4-Bromobenzyl)-1H-1,2,3-triazol-4-yl)methyl)-6-chloro-3-methylpyrimidine-2,4(1H,3H)-dione] | 138 to 140 | > 10 | > 10 | > 10 | –
Cc1ccc(Cn2cc(Cn3c(Cl)cc(=O)n(C)c3=O)nn2)cc1 [Compound 5h, 6-Chloro-3-methyl-1-((1-(4-methylbenzyl)-1H-1,2,3-triazol-4-yl)methyl)pyrimidine-2,4(1H,3H)-dione] | – | 4.5 ± 0.5 | 7.7 ± 0.3 | > 10 | –
COc1cccc(Cn2cc(Cn3c(Cl)cc(=O)n(C)c3=O)nn2)c1 [Compound 5i, 6-Chloro-1-((1-(3-methoxybenzyl)-1H-1,2,3-triazol-4-yl)methyl)-3-methylpyrimidine-2,4(1H,3H)-dione] | 98 to 100 | 9 | 9 ± 0.8 | > 10 | > 10
Cn1c(=O)cc(Cl)n(Cc2cn(Cc3cccc(Oc4ccccc4)c3)nn2)c1=O [Compound 5j, 6-Chloro-3-methyl-1-((1-(3-phenoxybenzyl)-1H-1,2,3-triazol-4-yl)methyl)pyrimidine-2,4(1H,3H)-dione] | 101 to 105 | 10 ± 1.5 | > 10 | > 10 | –
Cn1c(=O)cc(Cl)n(Cc2cn(Cc3nc(C4=Cc5ccccc5OC4)no3)nn2)c1=O [Compound 5k, 1-((1-((3-(2H-Chromen-3-yl)-1,2,4-oxadiazol-5-yl)methyl)-1H-1,2,3-triazol-4-yl)methyl)-6-chloro-3-methylpyrimidine-2,4(1H,3H)-dione] | 125 to 128 | > 10 | > 10 | > 10 | –
Cc1cc(=O)oc2cc(OCCCCn3cc(Cn4c(Cl)cc(=O)n(C)c4=O)nn3)ccc12 [Compound 5m, 6-Chloro-3-methyl-1-((1-(4-((4-methyl-2-oxo-2H-chromen-7-yl)oxy)butyl)-1H-1,2,3-triazol-4-yl)methyl)pyrimidine-2,4(1H,3H)-dione] | 145 to 148 | > 10 | > 10 | > 10 | –
Cn1c(=O)cc(Cl)n(Cc2cn(CCCN3C(=O)c4cccc5cccc(c45)C3=O)nn2)c1=O [Compound 5n, 2-(3-(4-((6-Chloro-3-methyl-2,4-dioxo-3,4-dihydropyrimidin-1(2H)-yl)methyl)-1H-1,2,3-triazol-1-yl)propyl)-1H-benzo[de]isoquinoline-1,3(2H)-dione] | 96 to 98 | 9.6 ± 1.2 | > 10 | > 10 | –
CCCCCCn1cc(Cn2c(Cl)cc(=O)n(C)c2=O)nn1 [Compound 5o, 6-Chloro-1-((1-hexyl-1H-1,2,3-triazol-4-yl)methyl)-3-methylpyrimidine-2,4(1H,3H)-dione] | 100 to 102 | > 10 | > 10 | > 10 | –
CCCCCCCCn1cc(Cn2c(Cl)cc(=O)n(C)c2=O)nn1 [Compound 5p, 6-Chloro-3-methyl-1-((1-octyl-1H-1,2,3-triazol-4-yl)methyl)pyrimidine-2,4(1H,3H)-dione] | – | > 10 | > 10 | > 10 | –
